Among the data in PubChem BioAssay AID330 (DTP/NCI, 2004) are T/C values, retold here.

Values joined by “and” are separate entries in the source; they are usually repeats but may differ in a detail not shown here. Equal values may be shown once. Toxic doses and inconclusive results are not listed.

This assay relates to P388 leukemia ip, CD2F1 mice, survival T/C. As to the kind of experiment: NCI In Vivo Anticancer Drug Screen. Data for tumor model P388 Leukemia (intraperitoneal) in CD2F1 (CDF1) mice. Conditions: endpoint: median survival time, higher = longer survival. An outline of the steps: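 Mice carrying the transplanted tumor received test compound or vehicle. Survival was recorded in each group, and the value is the treated-group measurement divided by that of the vehicle-treated control group.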

The mark [1] stands for this setting: dose: 100.0 mg/kg/injection, schedule: Q04DX003 (ip), vehicle: saline with Tween-80.
[2] abbreviates: dose: 200.0 mg/kg/injection, schedule: Q04DX003 (ip), vehicle: saline with Tween-80.
The mark [3] stands for this setting: dose: 400.0 mg/kg/injection, schedule: Q04DX003 (ip), vehicle: saline with Tween-80.
The mark [4] stands for this setting: dose: 100.0 mg/kg/injection, schedule: Q04DX002 (ip), vehicle: Klucel (hydroxypropylcellulose) (HPC).
[5] abbreviates: dose: 50.0 mg/kg/injection, schedule: Q01DX005 (ip), vehicle: saline with Tween-80.
The mark [6] stands for this setting: dose: 100.0 mg/kg/injection, schedule: Q01DX005 (ip), vehicle: saline with Tween-80.
Where [7] appears, read: dose: 200.0 mg/kg/injection, schedule: Q01DX005 (ip), vehicle: saline with Tween-80.
Setting [8] is: dose: 240.0 mg/kg/injection, schedule: Q01DX005 (ip), vehicle: saline with Tween-80.
Where [9] appears, read: dose: 50.0 mg/kg/injection, schedule: Q01DX005 (ip), vehicle: Klucel (hydroxypropylcellulose) (HPC).
Setting [10] is: dose: 100.0 mg/kg/injection, schedule: Q01DX005 (ip), vehicle: Klucel (hydroxypropylcellulose) (HPC).
The mark [11] stands for this setting: dose: 200.0 mg/kg/injection, schedule: Q01DX005 (ip), vehicle: Klucel (hydroxypropylcellulose) (HPC).
Setting [12] is: dose: 100.0 mg/kg/injection, schedule: Q04DX003 (ip), vehicle: Klucel (hydroxypropylcellulose) (HPC).
The mark [13] stands for this setting: dose: 200.0 mg/kg/injection, schedule: Q04DX003 (ip), vehicle: Klucel (hydroxypropylcellulose) (HPC).

Turning to `CCCc1nc2ccccc2c(=O)n1/N=C/c1ccsc1`, the T/C was 100 % of control under setting [1], 90 % of control under setting [2] and 90 % of control under setting [3].

For the molecule `CCCCCCCCCCCCCOCC(=O)OC`, the T/C was 100 % of control (dose: 50.0 mg/kg/injection, schedule: Q01DX009 (ip), vehicle: saline with Tween-80); 104 % of control (dose: 100.0 mg/kg/injection, schedule: Q01DX009 (ip), vehicle: saline with Tween-80); 105 % of control (dose: 200.0 mg/kg/injection, schedule: Q01DX009 (ip), vehicle: saline with Tween-80).

Consider `CSC(=S)n1nc(C)c(N=Nc2cccc(C)c2C)c1C`, for which the T/C is, setting by setting: under setting [4], 96 % of control; (dose: 200.0 mg/kg/injection, schedule: Q04DX002 (ip), vehicle: Klucel (hydroxypropylcellulose) (HPC)) 96 % of control; (dose: 400.0 mg/kg/injection, schedule: Q04DX002 (ip), vehicle: Klucel (hydroxypropylcellulose) (HPC)) 100 % of control.

As for `C=CC12CCC(CC1)n1c(=O)n(C)c(=O)n12`, the T/C by setting is: under setting [5], 99 % of control; under setting [6], 103 % of control; under setting [7], 100 % of control.

Take `O=C1c2ccc[n+]3c2-c2c1ccc[n+]2CC3`: the T/C is, setting by setting: (dose: 12.5 mg/kg/injection, schedule: Q01DX001 (ip), vehicle: saline) 108 % of control; (dose: 25.0 mg/kg/injection, schedule: Q01DX001 (ip), vehicle: saline) 115 % of control; (dose: 50.0 mg/kg/injection, schedule: Q01DX001 (ip), vehicle: saline) 101 % of control.

Take `CN(C)c1ccc(C2=CC(c3ccc(N(C)C)cc3)(c3ccc(C(F)(F)F)cc3)C=C(c3ccc(N(C)C)cc3)S2)cc1`: the T/C (dose: 100.0 mg/kg/injection, schedule: Q01DX001 (ip), vehicle: Klucel (hydroxypropylcellulose) (HPC)) was 101 % of control and the T/C (dose: 200.0 mg/kg/injection, schedule: Q01DX001 (ip), vehicle: Klucel (hydroxypropylcellulose) (HPC)) was 92 % of control.

With `CCOc1cc2c(cc1C(C)(C)c1ccc(OC)cc1)OCO2`, the T/C is 98 % of control (dose: 60.0 mg/kg/injection, schedule: Q01DX005 (ip), vehicle: saline with Tween-80); 109 % of control and 113 % of control (dose: 120.0 mg/kg/injection, schedule: Q01DX005 (ip), vehicle: saline with Tween-80); 123 % of control under setting [8].

Take `CC(=O)NC1CCCCC1C1CCC([N+](=O)[O-])CC1` (stereo not given): the T/C is, setting by setting: under setting [5], 101 % of control; under setting [6], 99 % of control; under setting [7], 99 % of control.

For `[N-]=[N+]=N/C=C1\CCOC1=O`, the T/C (dose: 7.5 mg/kg/injection, schedule: Q01DX005 (ip), vehicle: saline with Tween-80) is 101 % of control; the T/C (dose: 15.0 mg/kg/injection, schedule: Q01DX005 (ip), vehicle: saline with Tween-80) was 100 % of control; the T/C (dose: 30.0 mg/kg/injection, schedule: Q01DX005 (ip), vehicle: saline with Tween-80) was 99 % of control and 100 % of control; the T/C under setting [8] was 99 % of control.

Consider `COc1ccc(C(N)Cc2ccccc2)cc1` (stereo not given), for which the T/C by setting is: under setting [9], 92 % of control; under setting [10], 100 % of control; under setting [11], 102 % of control.

With `c1ccc2sc(N3CCCCC3)nc2c1`, the T/C (dose: 25.0 mg/kg/injection, schedule: Q04DX003 (ip), vehicle: Klucel (hydroxypropylcellulose) (HPC)) is 105 % of control; the T/C (dose: 50.0 mg/kg/injection, schedule: Q01DX009 (ip), vehicle: saline) was 104 % of control; the T/C (dose: 50.0 mg/kg/injection, schedule: Q04DX003 (ip), vehicle: Klucel (hydroxypropylcellulose) (HPC)) was 99 % of control; the T/C (dose: 100.0 mg/kg/injection, schedule: Q01DX009 (ip), vehicle: saline) is 104 % of control; the T/C under setting [12] was 100 % of control; the T/C (dose: 200.0 mg/kg/injection, schedule: Q01DX009 (ip), vehicle: saline) was 103 % of control. Also, under setting [13], the T/C is 109 % of control.

Turning to `CCN(CC)CCOCCOC1(C)CCC(C(C)C)CC1` (stereo not given), the T/C is, setting by setting: (dose: 50.0 mg/kg/injection, schedule: Q01DX005 (ip), vehicle: suspension in saline) 108 % of control; (dose: 100.0 mg/kg/injection, schedule: Q01DX005 (ip), vehicle: suspension in saline) 106 % of control.

Regarding `CCOC(=O)c1c[nH]c2c(=O)n(C)c(=O)[nH]c12`, the T/C under setting [1] was 93 % of control and the T/C under setting [2] is 100 % of control.

Regarding `C#CCCCCCC#CCCCCCC#CC(=O)O`, the T/C by setting is: (dose: 100.0 mg/kg/injection, schedule: Q01DX001 (ip), vehicle: saline) 104 % of control; (dose: 200.0 mg/kg/injection, schedule: Q01DX001 (ip), vehicle: saline) 101 % of control.

Consider `CCCSCC`, for which the T/C reads like this: under setting [1], 104 % of control; under setting [2], 100 % of control; under setting [3], 100 % of control.

Regarding `Cc1c(C)[n+](=O)c2ccccc2n1[O-]`, the T/C by setting is: (dose: 50.0 mg/kg/injection, schedule: Q01DX005 (ip), vehicle: saline) 103 % of control; (dose: 100.0 mg/kg/injection, schedule: Q01DX005 (ip), vehicle: saline) 108 % of control; (dose: 200.0 mg/kg/injection, schedule: Q01DX005 (ip), vehicle: saline) 100 % of control.

In the case of `COc1cccc2c1C(=O)c1c(O)c3c(c(O)c1C2=O)C[C@@](O)(/C(C)=N/NC(=O)c1ccc(Cl)cc1)C[C@@H]3OC1CC(N)C(O)C(C)O1` (stereo not given in full), the T/C is 110 % of control (dose: 0.12 mg/kg/injection, schedule: Q01DX009 (ip), vehicle: water); 155 % of control (dose: 0.5 mg/kg/injection, schedule: Q01DX009 (ip), vehicle: water); 180 % of control (dose: 1.0 mg/kg/injection, schedule: Q01DX009 (ip), vehicle: water); 161 % of control and 166 % of control (dose: 2.0 mg/kg/injection, schedule: Q01DX009 (ip), vehicle: water); 211 % of control (dose: 4.0 mg/kg/injection, schedule: Q01DX009 (ip), vehicle: water); 181 % of control (dose: 5.0 mg/kg/injection, schedule: Q01DX001 (ip), vehicle: water). Besides, the T/C is 109 % of control (dose: 8.0 mg/kg/injection, schedule: Q01DX009 (ip), vehicle: water); 192 % of control (dose: 10.0 mg/kg/injection, schedule: Q01DX001 (ip), vehicle: water); 108 % of control (dose: 20.0 mg/kg/injection, schedule: Q01DX001 (ip), vehicle: water).

Regarding `O=C(O)/C(=C\c1ccccn1)c1ccccc1`, the T/C (dose: 100.0 mg/kg/injection, schedule: Q04DX002 (ip), vehicle: saline with Tween-80) is 105 % of control; the T/C (dose: 200.0 mg/kg/injection, schedule: Q04DX002 (ip), vehicle: saline with Tween-80) is 105 % of control; the T/C (dose: 400.0 mg/kg/injection, schedule: Q04DX002 (ip), vehicle: saline with Tween-80) was 105 % of control.

For the molecule `Oc1ccc(CCC2CCC(c3ccc(O)cc3)CO2)cc1` (stereo not given), the T/C (dose: 12.5 mg/kg/injection, schedule: Q01DX005 (ip), vehicle: Klucel (hydroxypropylcellulose) (HPC)) is 97 % of control; the T/C (dose: 25.0 mg/kg/injection, schedule: Q01DX005 (ip), vehicle: Klucel (hydroxypropylcellulose) (HPC)) was 103 % of control; the T/C under setting [9] was 86 % of control; the T/C under setting [10] is 89 % of control; the T/C under setting [11] is 89 % of control.

Consider `O=C(O)c1ncnn1-c1ccccc1`, for which the T/C was 91 % of control (dose: 60.0 mg/kg/injection, schedule: Q01DX005 (ip), vehicle: saline); 96 % of control (dose: 120.0 mg/kg/injection, schedule: Q01DX005 (ip), vehicle: saline); 99 % of control (dose: 240.0 mg/kg/injection, schedule: Q01DX005 (ip), vehicle: saline).

With `CC(=O)OCC(=O)[C@@]1(O)CC[C@H]2[C@@H]3CCC4=CC(=O)[C@H](C)C[C@]4(C)[C@@]3(F)[C@@H](O)C[C@@]21C`, the T/C is 100 % of control under setting [12] and 110 % of control under setting [13].

As to `NC(=O)CCCCO`, the T/C is, setting by setting: (dose: 100.0 mg/kg/injection, schedule: Q04DX003 (ip), vehicle: saline) 102 % of control; (dose: 200.0 mg/kg/injection, schedule: Q04DX003 (ip), vehicle: saline) 102 % of control; (dose: 400.0 mg/kg/injection, schedule: Q04DX003 (ip), vehicle: saline) 109 % of control.

In the case of `c1ccc(-[n+]2ccc(-c3cc[n+](-c4ccccc4)cc3)cc2)cc1`, under setting [4], the T/C is 97 % of control.
